US20250257357A1, “TREATMENT OF H3.3-MUTANT BRAIN CANCER WITH PNKP INHIBITORS” (UNIVERSITE PARIS CITE, priority 2022, published 2025)

Test system: Hela cells
Test: RAD51 and 53BP1 repair foci by immunofluorescence in Hela cells with EZH2 inhibition
Assay type: cell-based, human
Settings: 72 h, 1 μM, damaged with camptothecin (3 h, 0.1 μM), FIG. 2B
Description: Camptothecin (CPT, Sigma-Aldrich) was used at 0.1 μM for 3 h, or at 1 μM for 1 or 3 h for iPOND in human cells, and at 5 or 10 μM in yeast cells; hydroxyurea (HU, Sigma-Aldrich) at 2 mM for 3 h; mitomycin C (MMC, Sigma-Aldrich) at 200 ng/ml and 25 ng/ml for 24 h for repair foci analyses and metaphase spreads, respectively; bleomycin (Bleo, Sigma-Aldrich) at 20 µg/mL for 3 h. An overnight treatment with 2 mM Thymidine followed by 3 h release in fresh medium was used to enrich cells in S phase for iPOND experiments (70-75% of cells were in S phase as evaluated by FACS). The EZH2 inhibitor GSK126 (EZH2i, Selleckchem) was used at 1 μM for 72 h.
Cells grown on glass coverslips (VWR) were either fixed directly with 2% paraformaldehyde (PFA) and permeabilized with 0.2% Triton X-100 in PBS or pre-extracted before fixation with 0.5% Triton X-100 in CSK buffer (Cytoskeletal buffer: 10 mM PIPES pH 7.0, 100 mM NaCl, 300 mM sucrose, 3 mM MgCl2) to remove soluble proteins (not bound to chromatin) and then fixed with 2% PFA. […] Images were mounted with Adobe Photoshop applying the same treatment of fluorescence levels to all images from the same experiment. […] The position of the LacO array was determined based on mCherry-LacR signal. DNA repair and PLA foci were identified and counted by using the find maxima function (Fiji software), on maximum intensity z-projections in the case of PLA foci. […]

Compound: CC[C@H](C)n1cc(C)c2c(C(=O)NCc3c(C)cc(C)[nH]c3=O)cc(-c3ccc(N4CCNCC4)nc3)cc21 [EZH2i, GSK126]
- RAD51 and 53BP1 foci (DNA repair defect): did not recapitulate the DNA repair defect
